Measurements taken from article PMC7913925, “Design and Evaluation of a Polypeptide That Mimics the Integrin Binding Site for EDA Fibronectin to Block Profibrotic Cell Activity” (International Journal of Molecular Sciences, 2021).
Bridges are numbered along the chain shown (N, C = ends). Where no end group is shown, it is not given here.

Assays:
[1] = system: integrin α4 protein (ITGA4); assay: Western blot total protein ITGA4; assay type: cell-based; settings: 48 h TGF-β1, AF38Pep or TGF-β1+AF38Pep
EDA-FN = assay: Western blot total protein EDA-FN; assay type: cell-based; settings: 48 h, TGF-β1+AF38Pep
[2] = system: ERK1/2 in NIH/3T3 fibroblasts; assay: Western blot ERK1/2 phosphorylation; assay type: cell-based, mouse; settings: TGF-β1 10 ng/mL, AF38Pep 10 µg/mL
Method: Total protein was extracted from cells in RIPA lysis buffer containing 1% protease inhibitor cocktail, 1% phenylmethylsulfonyl fluoride, and 1% sodium orthovanadate (Santa Cruz Biotechnology, Santa Cruz, CA, USA). Protein was quantified by Micro BCA Protein Assay Kit (Thermo Fisher Scientific) before 7.5% SDS-PAGE and transfer to nitrocellulose. Membranes were blocked with 5% bovine serum albumin (BSA; Sigma-Aldrich)/0.5% Tween-20 (Sigma-Aldrich)/PBS for 1 h, RT, followed by incubation with primary antibodies diluted in 1% BSA/0.1% Tween-20/PBS, overnight at 4 °C. Primary antibodies were: anti-phosphoY204/Y187 ERK1/2 (1:1000); anti-ERK1/2 (1:1000); anti-phosphoY861 FAK (1:1000); anti-FAK (1:2000). Immunoblotting for anti-GAPDH (1:2500) was used as a protein loading control. Following wash steps, membranes were incubated in goat anti-rabbit IgG H&L secondary antibody (horseradish peroxidase, HRP conjugate, […]) (Abcam; 1:5000 dilution, 1% BSA/0.1% Tween-20/PBS). Detection was performed using Immobilon reagent (Merck Millipore, Burlington, MA, USA) and imaged using a Tanon 5500 Chemiluminescent Imaging System (Tanon, Shanghai, China).

## VMPYISTTPAKPCTSENCGNSWYGGFKSKNENKIYFIN (disulfide 13-18 (inferred)) [AF38Pep]
[1]
  ITGA4 total protein: remained unaffected
EDA-FN
  TGF-β1-driven EDA-FN total protein increase: marginally, but significantly, attenuated
[2]; 1 h
  ERK1/2 phosphorylation: significantly suppressed
[2]; 12 h
  ERK1/2 phosphorylation: not prevented
